Measured values published in patent US10336733B2, “Aryl acylsulfonamides as BLT1 antagonists” (Merck Sharp & Dohme Corp., priority 2015, dated 2019).

Target: human BLT1 receptor (Homo sapiens (Human), UniProt Q15722)
Test: BLT-1 cAMP Assay
Format: cell-based
Conditions: antagonist mode; HEK293 cells recombinantly expressing human BLT1 receptor; forskolin 4 μM and LTB4 2 nM; cAMP detection
Procedure: The ability of compounds to antagonize the human BLT1 receptor was determined using a kit to measure changes in intracellular cyclic AMP levels (cAMP dynamic assay kit, Cisbio Cat. No. 62AM4PEC). HEK293 cells recombinantly expressing human BLT1 receptor, previously frozen in Recovery Medium (Life Technologies, Cat. No. 12648-010) were thawed and diluted into assay medium (HBSS (Hyclone SH 30268.01), 20 mM HEPES (Gibco 15630-106), 800 μM IBMX (Sigma I5879), 0.1% DTPA BSA (Perkin Elmer CR84-100)). The cell suspension was centrifuged at 200×g for 10 min and then resuspended in fresh assay medium to a density of 2.5×10^5 cells/mL. A Labcyte Echo 550 acoustic dispenser was used to transfer 25 nL of test compound dissolved in DMSO into the wells of a dry 384-well plate (Greiner 784075). All subsequent liquid additions were performed using a BIORAPTR (FRD; Beckman Coulter). Next, 5 μL of cell suspension was added and incubated for 20 min. at 37° C. and 5% CO2 in a humidified plastic tray. To test for agonist activity […] of assay buffer containing forskolin (Sigma F-6886. 4 μM for BLT1) was added and incubated for 30 minutes at 37° C. and 5% CO2 in a humidified plastic tray. To test for antagonist activity 5 μL of assay buffer containing forskolin (Sigma F-6886. 4 μM for BLT1) and either LTB4 (Sigma Aldrich L0517; 2 nM BLT1) was added and incubated for 30 minutes at 37° C. and 5% CO2 in a humidified plastic tray.
The levels of cAMP were detected using the CisBio kit following the manufacturer's instructions: cAMP-d2 vial was reconstituted with distilled water and then diluted accordingly with conjugate & lysis buffer. 5 μL of cAMP-d2 working solution was added to all of the wells of the assay plate. cAMP-Cryptate vial was reconstituted with distilled water and then diluted accordingly with conjugate & lysis buffer. 5 μL of cAMP-Cryptate working solution were added to the assay plate. The assay plate was shaken for 3 minutes and incubated at room temperature for 45 minutes, then read on Perkin Elmer Envision. cAMP standard curve and fit data were plotted using a 4 parameter dose response curve fitting algorithm to fit curve. A 4-parameter curve fit (Max, min, log EC50 and slope) was used to transform fluorescent 665 nm/615 nm ratio signal to cAMP concentration. After normalization to treated and untreated controls, the percent effect of signal at each compound concentration was calculated. The plot of percent effect versus the log of compound concentration was fit with a 4-parameter concentration response equation to calculate EC50 values. Compound concentrations tested were 10 000, 3 333, 1 111, 370.4, 123.4, 41.2, 13.7, 4.6, 1.5 and 0.5 nM with 0.25% residual DMSO.

Chain of human BLT1 receptor (Q15722 whole entry): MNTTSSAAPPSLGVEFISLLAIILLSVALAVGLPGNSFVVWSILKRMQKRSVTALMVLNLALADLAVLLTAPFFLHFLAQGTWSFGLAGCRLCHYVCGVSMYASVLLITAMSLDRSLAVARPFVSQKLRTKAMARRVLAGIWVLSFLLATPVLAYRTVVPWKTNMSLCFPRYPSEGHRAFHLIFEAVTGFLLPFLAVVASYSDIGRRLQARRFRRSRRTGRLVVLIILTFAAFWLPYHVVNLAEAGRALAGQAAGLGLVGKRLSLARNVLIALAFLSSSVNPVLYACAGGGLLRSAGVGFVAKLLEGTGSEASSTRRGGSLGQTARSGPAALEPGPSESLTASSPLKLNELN

EC50 [nM] | SMILES
870 | CC1(S(=O)(=O)NC(=O)c2ccc(F)cc2-c2ccc3c(c2)OC[C@@H](Cc2ccccn2)[C@@H]3O)CC1 (single isomer, unassigned) [Example 10, 4-Fluoro-2-((3R,4S or 3S,4R)-4-hydroxy-3-(pyridin-2-ylmethyl)chroman-7-yl)-N-((1-methylcyclopropyl)sulfonyl)benzamide]
6 | O=C(NS(=O)(=O)C(F)(F)F)c1ccc(F)cc1-c1ccc2c(c1)OC[C@H](Cc1ccccn1)[C@H]2O (single isomer, unassigned) [Example 2, 4-Fluoro-2-((3S,4R or 3R,4S)-4-hydroxy-3-(pyridin-2-ylmethyl)chroman-7-yl)-N-((trifluoromethyl)sulfonyl)benzamide]
441 | CC(C)(C)S(=O)(=O)NC(=O)c1ccc(F)cc1-c1ccc2c(c1)OC[C@@H](Cc1ccccn1)[C@@H]2O (single isomer, unassigned) [Example 13, N-(tert-Butylsulfonyl)-4-fluoro-2-((3R,4S or 3S,4R)-4-hydroxy-3-(pyridin-2-ylmethyl)chroman-7-yl)benzamide]
2170 | O=C(NS(=O)(=O)C1CC1)c1ccccc1-c1ccc2c(c1)OC[C@@H](Cc1ccccn1)[C@@H]2O (single isomer, unassigned) [Example 5, N-(Cyclopropylsulfonyl)-2-((3R,4S or 3S,4R)-4-hydroxy-3-(pyridin-2-ylmethyl)chroman-7-yl)benzamide]
2 | CC(C)(C)S(=O)(=O)NC(=O)c1ccc(F)cc1-c1ccc2c(c1)OC[C@H](Cc1ccccn1)[C@H]2O (single isomer, unassigned) [Example 14, N-(tert-Butylsulfonyl)-4-fluoro-2-((3S,4R or 3R,4S)-4-hydroxy-3-(pyridin-2-ylmethyl)chroman-7-yl)benzamide]
24 | CC(C)CS(=O)(=O)NC(=O)c1ccccc1-c1ccc2c(c1)OCC(Cc1ccccn1)C2O (stereo not drawn) [Example 17, 2-((3,4-trans)-4-Hydroxy-3-(pyridin-2-ylmethyl)chroman-7-yl)-N-(isobutylsulfonyl)benzamide]
2820 | O=C(NS(=O)(=O)C1CC1)c1ccccc1-c1ccc2c(c1)OC[C@@H](Cc1ccccc1)[C@@H]2O (single isomer, unassigned) [Example 23, 2-((3R,4S or 3S,4R)-3-Benzyl-4-hydroxychroman-7-yl)-N-(cyclopropylsulfonyl)benzamide]
808 | CC(C)(C)S(=O)(=O)NC(=O)c1ccccc1-c1ccc2c(c1)OC[C@@H](Cc1cscn1)[C@@H]2O (single isomer, unassigned) [Example 33, N-(tert-Butylsulfonyl)-2-((3R,4S or 3S,4R)-4-hydroxy-3-(thiazol-4-ylmethyl)chroman-7-yl)benzamide]
11 | CC(C)(C)S(=O)(=O)NC(=O)c1ccccc1-c1ccc2c(c1)OC[C@@H](Cc1cscn1)[C@@H]2O (racemic) [Example 32, N-(tert-Butylsulfonyl)-2-((rac-trans)-4-hydroxy-3-(thiazol-4-ylmethyl)chroman-7-yl)benzamide]

Second part, the compound before the results:

SMILES | EC50 [nM]
Cc1nnc(C[C@@H]2COc3cc(-c4ccccc4C(=O)NS(=O)(=O)C(C)(C)C)ccc3[C@H]2O)s1 (racemic) [Example 31, N-(tert-Butylsulfonyl)-2-((rac-trans)-4-hydroxy-3-((5-methyl-1,3,4-thiadiazol-2-yl)methyl)chroman-7-yl)benzamide] | 556
CC1(S(=O)(=O)NC(=O)c2ccccc2-c2ccc3c(c2)OC[C@@H](Cc2ccccn2)[C@@H]3O)CC1 (single isomer, unassigned) [Example 7, 2-((3R,4S or 3S,4R)-4-Hydroxy-3-(pyridin-2-ylmethyl)chroman-7-yl)-N-((1-methylcyclopropyl)sulfonyl)benzamide] | 1270
CS(=O)(=O)NC(=O)c1ccc(F)cc1-c1ccc2c(c1)OC[C@@H](Cc1ccccn1)[C@@H]2O (single isomer, unassigned) [Example 3, 4-Fluoro-2-((3R,4S or 3S,4R)-4-hydroxy-3-(pyridin-2-ylmethyl)chroman-7-yl)-N-(methylsulfonyl)benzamide] | 1720
CC(C)(C)S(=O)(=O)NC(=O)c1ccccc1-c1ccc2c(c1)OC[C@@H](Cc1ccccn1)[C@@H]2O (single isomer, unassigned) [Example 11, N-(tert-Butylsulfonyl)-2-((3R,4S or 3S,4R)-4-hydroxy-3-(pyridin-2-ylmethyl)chroman-7-yl)benzamide] | 144
CC1(S(=O)(=O)NC(=O)c2ccccc2-c2ccc3c(c2)OC[C@@H](Cc2cscn2)[C@@H]3O)CC1 (single isomer, unassigned) [Example 26, 2-((3R, 4S or 3S, 4R)-4-Hydroxy-3-(thiazol-4-ylmethyl)chroman-7-yl)-N-((1-methylcyclopropyl)sulfonyl)benzamide] | 770
CC(C)(C)S(=O)(=O)NC(=O)c1ccccc1-c1ccc2c(c1)OC[C@H](Cc1ccccn1)[C@H]2O (single isomer, unassigned) [Example 12, N-(tert-Butylsulfonyl)-2-((3S,4R or 3R,4S)-4-hydroxy-3-(pyridin-2-ylmethyl)chroman-7-yl)benzamide] | 17
CC1(S(=O)(=O)NC(=O)c2ccccc2-c2ccc3c(c2)OCC(Cc2coc(-c4ccccc4)n2)C3O)CC1 (racemic) [Example 46, 2-(Rac-trans)-4-Hydroxy-3-((2-phenyloxazol-4-yl)methyl)chroman-7-yl)-N-((1-methylcyclopropyl)sulfonyl)benzamide] | 15
C[C@H](c1ccccn1)C1COc2cc(-c3ccccc3C(=O)NS(=O)(=O)C3(C)CC3)ccc2C1O (stereo in doubt) [Example 50, 2-((3,4-trans)-4-Hydroxy-3-((S)-1-(pyridin-2-yl)ethyl)chroman-7-yl)-N-((1-methylcyclopropyl)sulfonyl)benzamide] | 67
Cc1nnc(C[C@@H]2COc3cc(-c4ccccc4C(=O)NS(=O)(=O)C4(C)CC4)ccc3[C@H]2O)s1 (racemic) [Example 29, 2-((Rac-trans)-4-Hydroxy-3-((5-methyl-1,3,4-thiadiazol-2-yl)methyl)chroman-7-yl)-N-((1-methylcyclopropyl)sulfonyl)benzamide] | 740
O=C(NS(=O)(=O)C(F)(F)F)c1ccc(F)cc1-c1ccc2c(c1)OC[C@H](Cc1ccc(-c3ccccc3)cc1)[C@@H]2O (racemic) [Example 39, 2-((Rac-cis)-3-([1,1′-Biphenyl]-4-ylmethyl)-4-hydroxychroman-7-yl)-4-fluoro-N-((trifluoromethyl)sulfonyl)benzamide] | 37
O=C(NS(=O)(=O)C1CC1)c1ccc(F)cc1-c1ccc2c(c1)OC[C@@H](Cc1ccccn1)[C@@H]2O (single isomer, unassigned) [Example 15, N-(Cyclopropylsulfonyl)-4-fluoro-2-((3R,4S or 3S,4R)-4-hydroxy-3-(pyridin-2-ylmethyl)chroman-7-yl)benzamide] | 480
CC(C)(C)S(=O)(=O)NC(=O)c1ccccc1-c1ccc2c(c1)OC[C@@H](Cc1coc(-c3ccccc3)n1)[C@@H]2O (single isomer, unassigned) [Example 47, N-(tert-Butylsulfonyl)-2-((3R,4S or 3S,4R)-4-hydroxy-3-((2-phenyloxazol-4-yl)methyl)chroman-7-yl)benzamide] | 75
CCn1nccc1C[C@H]1COc2cc(-c3ccccc3C(=O)NS(=O)(=O)C(C)(C)C)ccc2[C@@H]1O (single isomer, unassigned) [Example 37, N-(tert-Butylsulfonyl)-2-((3S,4R or 3R,4S)-3-((1-ethyl-1H-pyrazol-5-yl)methyl)-4-hydroxychroman-7-yl)benzamide] | 36
CS(=O)(=O)NC(=O)c1ccc(F)cc1-c1ccc2c(c1)OC[C@H](Cc1ccccn1)[C@H]2O (single isomer, unassigned) [Example 4, 4-Fluoro-2-((3S,4R or 3R,4S)-4-hydroxy-3-(pyridin-2-ylmethyl)chroman-7-yl)-N-(methylsulfonyl)benzamide] | 93
